# Columns and labels:
# [1] = Oral exposure in the rat (pharmacokinetics); format: in vivo, Sprague Dawley rats; conditions: rats, 1 mg/kg intravenous
# [2] = Antiproliferative activity by MTT; format: cell-based; conditions: B-cell
# Method: (§1) Cell lines: 22 diffuse large B-cell lymphoma (DLBCL), 4 mantle cell lymphomas, 3 multiple myelomas, 3 splenic marginal zone lymphoma and 1 prolymphocytic leukemia. […]. Data mining was done with LIMMA, GSEA, Metacore. Synergy was assessed in cells (2-5 cell lines) exposed for 72 h to increasing doses of compound (1-1) alone or in combination with increasing doses of other agents. MTT assays were performed and Chou-Talalay combination index (CI) calculated.
# [3] = tested on: 22 diffuse large B-cell lymphoma (DLBCL), 4 mantle cell lymphomas, 3 multiple myelomas, 3 splenic marginal zone lymphoma and 1 prolymphocytic leukemia cell …; assay: Antiproliferative activity by MTT; format: cell-based; conditions: 500 nM, 72 h; 88%
# Method: as §1
# [4] = tested on: lymphoma cell lines; assay: Cytotoxic activity (apoptosis) by Annexin V staining; format: cell-based; conditions: 500 nM, 72 h; 14%
# [5] = tested on: SU-DHL-6, SU-DHL-2 cell lines; assay: Gene expression profiling (GEP), Illumina HumanHT-12; format: cell-based, human; conditions: 500 nM, 1, 2, 4, 8 or 12 hours
# Method: Cell lines: 22 diffuse large B-cell lymphoma (DLBCL), 4 mantle cell lymphomas, 3 multiple myelomas, 3 splenic marginal zone lymphoma and 1 prolymphocytic leukemia. Antiproliferative activity of compound (1-1) (OncoEthix SA, Switzerland) was assessed by MTT and its cytotoxic activity by Annexin V staining and gene expression profiling (GEP) with Illumina HumanHT-12 Expression BeadChips. Data mining was done with LIMMA, GSEA, Metacore. Synergy was assessed in cells (2-5 cell lines) exposed for 72 h to increasing doses of compound (1-1) alone or in combination with increasing doses of other agents. MTT assays were performed and Chou-Talalay combination index (CI) calculated.
# We performed GEP on 2 cell lines (SU-DHL-6, SU-DHL-2), treated with DMSO or compound (1-1) (500 nM) for 1, 2, 4, 8 or 12 hours.
# [6] = tested on: NFKB target genes (IRF4, TNF AIP3 and BIRC3); assay: PCR of NFKB target genes; format: cell-based
# [7] = tested on: ABC cell lines; assay: Immunoblotting and immunohistochemistry; format: cell-based
# [8] = tested on: IL10 and IL4 production; assay: IL10 and IL4 production; format: cell-based; conditions: after 24 hours treatment
# [9] = tested on: DOHH2 and SU-DHL-2 DLBCL cell lines; assay: miRNA profiling, Agilent Human microRNA microarray; format: cell-based; conditions: 500 nM vs DMSO, 4 h or 8 h
# Method: (§2) Total RNA was extracted from 2 DLBCL cell lines, the germinal center B-cell (GCB) type DOHH2 and from the activated B-cell-like (ABC)-type SU-DHL-2, following treatment with compound (1-1) (500 nM) or DMSO for 4 h or 8 h. RNA samples were labeled with cyanine-3 dye using the Agilent microRNA Complete Labeling System & Hyb Kit and hybridized to the Agilent Human microRNA microarray v.3. Raw expression values were obtained with Agilent Feature Extraction Software, log-transformed and normalized by the quantile method. Data were filtered to exclude relatively invariant features and those below the detection threshold. Limma (Linear Models for Microarray data analysis) was employed using R/Bioconductor and the filtered dataset. Baseline miRNA profiling was obtained in 22 DLBCL cell lines with the Nanostring nCounter Human v2 miRNA Expression Assay kit. Baseline gene expression profiling (GEP) was obtained in the 22 cell lines with the Illumina HumanHT-12 v4 Expression BeadChip. Selected miRNA changes were validated by real-time PCR. The miRWalk database (Dweep et al, 2011) was used to retrieve the validated miRNA targets. Gene Set Enrichment Analysis (GSEA) software was used to assess enrichment of miRNA targets in the GEP datasets.
# Total RNA was extracted from 2 diffuse large B-Cell lymphoma (DLBCL) cell lines, the germinal center B-cell (GCB) type DOHH2 and activated B-cell-like (ABC)-type SU-DHL-2, following treatment with 500 nM compound (1-1) or DMSO for 4 h or 8 h. RNA samples were labeled with cyanine-3 dye using the Agilent microRNA Complete Labeling System & Hyb Kit and hybridized to the Agilent Human microRNA microarray v.3. Raw expression values were obtained with Agilent Feature Extraction Software, log-transformed and normalized by the quantile method. Data were filtered to exclude relatively invariant features and those below the detection threshold. Limma was employed using R/Bioconductor and the filtered dataset. […]
# [10] = tested on: DLBCL cell lines; assay: GEP variations of validated miRNA target genes; format: cell-based, human
# Method: as §2
# Total RNA was extracted from 2 diffuse large B-Cell lymphoma (DLBCL) cell lines, the germinal center B-cell (GCB) type DOHH2 and activated B-cell-like (ABC)-type SU-DHL-2, following treatment with 500 nM compound (1-1) or DMSO for 4 h or 8 h. RNA samples were labeled with cyanine-3 dye using the Agilent microRNA Complete Labeling System & Hyb Kit and hybridized to the Agilent Human microRNA microarray v.3. Raw expression values were obtained with Agilent Feature Extraction Software, log-transformed and normalized by the quantile method. Data were filtered to exclude relatively invariant features and those below the detection threshold. Limma was employed using R/Bioconductor and the filtered dataset. Baseline microRNA (abbreviated miRNA) profiling was obtained from 30 B-cell lymphoma cell lines, including 22 DLBCL with the Nanostring nCounter Human v2 miRNA Expression Assay kit. Baseline gene expression profiling (GEP) was obtained with the Illumina HumanHT-12 v4 Expression BeadChip. Selected miRNA changes were validated by real-time PCR. Validated miRNA targets were retrieved using the miRWalk database (Dweep et al, 2011). […] Changes in these miRNAs matched GEP variations of validated target genes (e.g., miR-92a-1-5p: CDKN1A, log 2 FC, 0.81, CDKN2A, log 2 FC, 0.81; miR-96-5p: MYC, log 2 FC, −0.57, MYD88, log 2 FC, −0.35).
compound,measurement,setting,value
"Cc1sc2c(c1C)C(c1ccc(Cl)cc1)=N[C@@H](CC(=O)Nc1ccc(O)cc1)c1nnc(C)n1-2 [Compound (1-1), 2-[(6S)-4-(4-chlorophenyl)-2,3,9-trimethyl-6H-thienol[3,2-f]-[1,2,4]triazolo[4,3-a][1,4]diazepin-6-yl]-N-(4-hydroxyphenyl)acetamide dihydrate]",CI/F,[1],13.4 mL/min/kg
same,IC50,[2]; cell lines with lower sensitivity (8 of 22 DLBCL cell lines),> 0.5 µM
same,IC50,[2]; sensitive cell lines (14 of 22 DLBCL cell lines),< 0.5 µM
same,cell lines showing cytostatic activity,[3],29/33
same,cell lines showing apoptosis,[4],3/22
same,expression of MYC (GEP),[5],most frequently downregulated gene
same,"expression of MYD88, IRAK1, TLR6, IL6, STAT3, and TNFRSF17 (NFKB, TLR and JAK/STAT pathways)",[5],downregulated
same,expression of histone genes (GEP),[5],upregulated
same,"expression of NFKB target genes (IRF4, TNF AIP3 and BIRC3)",[6],downregulated
same,transcriptionally active pSTAT3,[7]; 2 ABC cell lines,reduction
same,nuclear localization of p50 (NFKB 1),[7]; ABC cell lines,reduction
same,IL10 and IL4 production,[8],reduced
same,"miR-21-3p expression, log 2 FC",[9],−0.37 log 2 FC
same,"miR-92a-1-5p expression, log 2 FC",[9],−2.01 log 2 FC
same,"miR-96-5p expression, log 2 FC",[9],0.39 log 2 FC
same,"CDKN1A expression (miR-92a-1-5p target), log 2 FC",[10],0.81 log 2 FC
same,"CDKN2A expression (miR-92a-1-5p target), log 2 FC",[10],0.81 log 2 FC
same,"MYC expression (miR-96-5p target), log 2 FC",[10],−0.57 log 2 FC
same,"MYD88 expression (miR-96-5p target), log 2 FC",[10],−0.35 log 2 FC
